US20190375708A1 (VenatoRx Pharmaceuticals, Inc., priority 2018, published 2019)

Key:
[1] = tested on: HBV replication in HepAD38 cells; assay: Anti-HBV replication assay in HepAD38 cells (QPCR of extracellular HBV DNA); assay type: cell-based, HBV (genotype D, serotype ayw); details: Hepatitis B virus, 168 h, 7 days incubation, extracellular HBV DNA by QPCR, read-out: Anti-HBV EC50
In short: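 Compounds (1 log10 serial dilutions, […]) were left 7 days on tetracycline-free HepAD38 cultures, a HepG2 line with tet-controlled HBV genotype D. EC50 came from 4-parameter regression of percent inhibition versus vehicle, using supernatant HBV DNA copies/mL measured by QPCR.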

[2] = In vitro cytotoxicity assay (MTT cell viability) in HepG2 cells; assay type: cell-based, human; details: human
In short: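 HepG2 seeded overnight, then 7-day compound exposure (30 μM–1.0 nM, half-log steps), 37 °C. MTT 3-4 h, DMSO solubilization, A492. % of vehicle → CC50, 4-PL fit.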

Question: Which results are given for `Cc1cc(NC(=O)c2c(Cl)c(C(=O)C(=O)NC(C)(C)C)n3c2CCC3)ccc1F` [Example 539, 5-(2-(tert-butylamino)-2-oxoacetyl)-6-chloro-N-(4-fluoro-3-methylphenyl)-2,3-dihydro-1H-pyrrolizine-7-carboxamide]?
Answer: EC50 [1]: < 0.05 µM; CC50 at 7 days [2]: 5 to 30 µM

Question: Which results are given for `Nc1ncc(CNC(=O)C(=O)c2c(Cl)c(C(=O)Nc3ccc(F)c(F)c3)c3n2CCC3)s1` [Example 569, 5-(2-(((2-aminothiazol-5-yl)methyl)amino)-2-oxoacetyl)-6-chloro-N-(3,4-difluorophenyl)-2,3-dihydro-1H-pyrrolizine-7-carboxamide]?
Answer: EC50 [1]: < 0.05 µM; CC50 at 7 days [2]: > 30 µM

Question: For `Cc1c(C(=O)Nc2cc(F)c(F)c(F)c2)c(C)n(C)c1C(=O)C(=O)NC1CCC(F)(F)CC1` [Example 324, 5-(2-((4,4-difluorocyclohexyl)amino)-2-oxoacetyl)-1,2,4-trimethyl-N-(3,4,5-trifluorophenyl)-1H-pyrrole-3-carboxamide], which EC50 [1] is on record?
Answer: < 0.05 µM

Question: What about the CC50 at 7 days [2] of the same compound?
Answer: 5 to 30 µM

Question: With `Cc1c(C(=O)Nc2ccc(F)c(F)c2)c2n(c1C(=O)C(=O)NC1(CO)CCC1)CCCC2` [Example 460, N-(3,4-difluorophenyl)-3-(2-((1-(hydroxymethyl)cyclobutyl)amino)-2-oxoacetyl)-2-methyl-5,6,7,8-tetrahydroindoline-1-carboxamide] as the compound, how does the EC50 [1] read?
Answer: < 0.05 µM

Question: What about the CC50 at 7 days [2] of the same compound?
Answer: 5 to 30 µM

Question: Which results are given for `Cc1cc(NC(=O)c2c(C)c(C(=O)C(=O)Nc3ccc(N4CCOCC4)nc3)n(C)c2C)ccc1F` [Example 266, N-(4-fluoro-3-methylphenyl)-1,2,4-trimethyl-5-(2-((6-morpholinopyridin-3-yl)amino)-2-oxoacetyl)-1H-pyrrol-3-carboxamide]?
Answer: EC50 [1]: 0.05 to 0.499 µM; CC50 at 7 days [2]: > 30 µM

Question: For `Cc1cc(NC(=O)c2c(C)c(C(=O)C(=O)N[C@H](C(N)=O)C(C)C)n(C)c2C)ccc1F` [Example 107, (S)-5-(2-((1-amino-3-methyl-1-oxobutan-2-yl)amino)-2-oxoacetyl)-N-(4-fluoro-3-methylphenyl)-1,2,4-trimethyl-1H-pyrrole-3-carboxamide], which EC50 [1] is on record?
Answer: < 0.05 µM

Question: What about the CC50 at 7 days [2] of the same compound?
Answer: > 30 µM

Question: Which results are given for `Cc1noc([C@H](C)NC(=O)C(=O)c2c(Cl)c(C(=O)Nc3ccc(F)c(Cl)c3)c3n2CCCC3)n1` [Example 523, (S)-2-chloro-N-(3-chloro-4-fluorophenyl)-3-(2-((1-(3-methyl-1,2,4-oxadiazol-5-yl)ethyl)amino)-2-oxoacetyl)-5,6,7,8-tetrahydroindolizine-1-carboxamide]?
Answer: EC50 [1]: 0.05 to 0.499 µM; CC50 at 7 days [2]: 5 to 30 µM

Question: Which EC50 [1] does the source give for `Cc1cc(NC(=O)c2c(C)c(C(=O)C(=O)Nc3cccnc3)n(C)c2C)ccc1F` [Example 204, N-(4-fluoro-3-methylphenyl)-1,2,4-trimethyl-5-(2-oxo-2-(pyridin-3-ylamino)acetyl)-1H-pyrrole-3-carboxamide] here?
Answer: < 0.05 µM

Question: And the CC50 at 7 days [2]?
Answer: > 30 µM

Question: Which EC50 [1] does the source give for `Cc1noc([C@@H](C)NC(=O)C(=O)c2c(Cl)c(C(=O)Nc3ccc(F)c(Cl)c3)c3n2CCC3)n1` [Example 554, (R)-6-chloro-N-(3-chloro-4-fluorophenyl)-5-(2-((1-(3-methyl-1,2,4-oxadiazol-5-yl)ethyl)amino)-2-oxoacetyl)-2,3-dihydro-1H-pyrrolizine-7-carboxamide] here?
Answer: < 0.05 µM

Question: What about the CC50 at 7 days [2] of the same compound?
Answer: 5 to 30 µM

Question: Which EC50 [1] does the source give for `Cc1c(C(=O)Nc2ccnc(Cl)c2)c(C)n(C)c1C(=O)C(=O)NC(C)(C)CN1CCOCC1` [Example 331, N-(2-chloropyridin-4-yl)-1,2,4-trimethyl-5-(2-((2-methyl-1-morpholinopropan-2-yl)amino)-2-oxoacetyl)-1H-pyrrole-3-carboxamide] here?
Answer: < 0.05 µM

Question: What about the CC50 at 7 days [2] of the same compound?
Answer: > 30 µM

Question: With `COc1c(C(=O)Nc2ccc(F)c(F)c2)c(C)n(C)c1C(=O)C(=O)NC1(C(F)(F)F)CCC1` [Example 378, N-(3,4-difluorophenyl)-4-methoxy-1,2-dimethyl-5-(2-oxo-2-((1-(trifluoromethyl)cyclobutyl)amino)acetyl)-1H-pyrrole-3-carboxamide] as the compound, how does the EC50 [1] read?
Answer: < 0.05 µM

Question: What about the CC50 at 7 days [2] of the same compound?
Answer: > 30 µM
